Earlier results on two compounds are cited in US10881700B1, “Compositions including extracts of gray mangrove leaves and methods of treatment using such compositions in treatment of viral infections” (KING ABDULLAH UNIVERSITY OF SCIENCE AND TECHNOLOGY, priority 2016, dated 2021).

One data set concerns the target HIV-1 integrase (Human immunodeficiency virus type 1 group M subtype B, UniProt P04585). The note with it: reference [24].
The next data set relates to HIV-1 reactivation. The note with it: reference [26].

As to `COC(=O)C=Cc1ccccc1` [Methyl cinnamate], the “activity against HIV-1 integrase” value at HIV-1 integrase was “not demonstrated activity”.

For `COc1ccccc1O` [gluaiacol, 2-Methoxy phenol], the “blocking HIV-1 reactivation in cases of virus latency” value in the data set with HIV-1 reactivation was “efficient in blocking HIV-1 reactivation”.
